Source: ChEMBL document CHEMBL3797119, “Pharmacokinetic Study of Two Macrolide Antibiotic Oral Suspensions Using an Optimized Bioassay Procedure” (J Bioequivalence Bioavailab, 2010)
Blank lines part the entries; values can stand above or below the compound they belong to.

How the values were obtained:
Type in all cases: ADME, organism-based
Settings in all cases: in vivo
[1] = Tmax in healthy human (24 volunteers) at 500 mg, po reference formulation of drug administered as single dose
[2] = Cmax in healthy human (24 volunteers) at 500 mg, po reference formulation of drug administered as single dose measured after 0.5 to 72 hrs; design: dose 500 mg, route oral
[3] = Clearance in healthy human (24 volunteers) at 500 mg, po test formulation of drug administered as single dose by two-compartmental open model
[4] = test system: Homo sapiens; assay: First order inter-compartment transfer rate constant from central to peripheral compartment in healthy human (24 volunteers) at 500 mg, po test formulation of drug administered as single dose by two-compartmental open model
[5] = test system: Homo sapiens; assay: Ratio of AUC (0 to t) in healthy human (24 volunteers) at 500 mg, po test formulation of drug administered as single dose to AUC (0 to t) in healthy human (24 volunteers) at 500 mg, po reference formulation of drug administered as single dose
[6] = Cmax in healthy human (24 volunteers) at 500 mg, po test formulation of drug administered as single dose measured after 0.5 to 72 hrs; design: dose 500 mg, route oral
[7] = Tmax in healthy human (24 volunteers) at 500 mg, po test formulation of drug administered as single dose
[8] = test system: Homo sapiens; assay: Volume of distribution in healthy human (24 volunteers) at 500 mg, po reference formulation of drug administered as single dose by two-compartmental open model
[9] = Half life in healthy human (24 volunteers) at 500 mg, po test formulation of drug administered as single dose
[10] = AUC (0 to t) in healthy human (24 volunteers) at 500 mg, po test formulation of drug administered as single dose measured after 0.5 to 72 hrs; design: time upper 72 hr, time lower 0.5 hr, dose 500 mg, route oral
[11] = Half life in healthy human (24 volunteers) at 500 mg, po reference formulation of drug administered as single dose
[12] = AUC (0 to infinity) in healthy human (24 volunteers) at 500 mg, po test formulation of drug administered as single dose measured after 0.5 to 72 hrs; design: dose 500 mg, route oral, time infinity
[13] = AUC (0 to t) in healthy human (24 volunteers) at 500 mg, po reference formulation of drug administered as single dose measured after 0.5 to 72 hrs; design: time upper 72 hr, dose 500 mg, time lower 0.5 hr, route oral
[14] = Elimination rate constant from central compartment in healthy human (24 volunteers) at 500 mg, po test formulation of drug administered as single dose by two-compartmental open model
[15] = AUC (0 to infinity) in healthy human (24 volunteers) at 500 mg, po reference formulation of drug administered as single dose measured after 0.5 to 72 hrs; design: dose 500 mg, time infinity, route oral
[16] = Elimination rate constant from central compartment in healthy human (24 volunteers) at 500 mg, po reference formulation of drug administered as single dose by two-compartmental open model
[17] = test system: Homo sapiens; assay: Volume of distribution in healthy human (24 volunteers) at 500 mg, po test formulation of drug administered as single dose by two-compartmental open model
[18] = test system: Homo sapiens; assay: Ratio of AUC (0 to infinity) in healthy human (24 volunteers) at 500 mg, po test formulation of drug administered as single dose to AUC (0 to t) in healthy human (24 volunteers) at 500 mg, po reference formulation of drug administered as single dose
[19] = test system: Homo sapiens; assay: First order inter-compartment transfer rate constant from peripheral to central compartment in healthy human (24 volunteers) at 500 mg, po reference formulation of drug administered as single dose by two-compartmental open model
[20] = test system: Homo sapiens; assay: First order inter-compartment transfer rate constant from peripheral to central compartment in healthy human (24 volunteers) at 500 mg, po test formulation of drug administered as single dose by two-compartmental open model
[21] = test system: Homo sapiens; assay: Ratio of Cmax in healthy human (24 volunteers) at 500 mg, po test formulation of drug administered as single dose to Cmax in healthy human (24 volunteers) at 500 mg, po reference formulation of drug administered as single dose
[22] = Clearance in healthy human (24 volunteers) at 500 mg, po reference formulation of drug administered as single dose by two-compartmental open model
[23] = test system: Homo sapiens; assay: First order inter-compartment transfer rate constant from central to peripheral compartment in healthy human (24 volunteers) at 500 mg, po reference formulation of drug administered as single dose by two-compartmental open model
[24] = AUC (0 to infinity) in healthy human (24 volunteers) at 400 mg, po reference formulation of drug administered as single dose measured after 0.5 to 10 hrs; design: dose 400 mg, route oral, time infinity
[25] = Half life in healthy human (24 volunteers) at 400 mg, po test formulation of drug administered as single dose
[26] = test system: Homo sapiens; assay: Volume of distribution in healthy human (24 volunteers) at 400 mg, po test formulation of drug administered as single dose by two-compartmental open model
[27] = Half life in healthy human (24 volunteers) at 400 mg, po reference formulation of drug administered as single dose
[28] = Tmax in healthy human (24 volunteers) at 400 mg, po test formulation of drug administered as single dose
[29] = test system: Homo sapiens; assay: Ratio of AUC (0 to infinity) in healthy human (24 volunteers) at 400 mg, po test formulation of drug administered as single dose to AUC (0 to t) in healthy human (24 volunteers) at 400 mg, po reference formulation of drug administered as single dose
[30] = test system: Homo sapiens; assay: First order inter-compartment transfer rate constant from peripheral to central compartment in healthy human (24 volunteers) at 400 mg, po reference formulation of drug administered as single dose by two-compartmental open model
[31] = Clearance in healthy human (24 volunteers) at 400 mg, po test formulation of drug administered as single dose by two-compartmental open model
[32] = Cmax in healthy human (24 volunteers) at 400 mg, po reference formulation of drug administered as single dose measured after 0.5 to 10 hrs; design: dose 400 mg, route oral
[33] = Elimination rate constant from central compartment in healthy human (24 volunteers) at 400 mg, po reference formulation of drug administered as single dose by two-compartmental open model
[34] = test system: Homo sapiens; assay: Volume of distribution in healthy human (24 volunteers) at 400 mg, po reference formulation of drug administered as single dose by two-compartmental open model
[35] = test system: Homo sapiens; assay: Ratio of Cmax in healthy human (24 volunteers) at 400 mg, po test formulation of drug administered as single dose to Cmax in healthy human (24 volunteers) at 400 mg, po reference formulation of drug administered as single dose
[36] = Tmax in healthy human (24 volunteers) at 400 mg, po reference formulation of drug administered as single dose
[37] = AUC (0 to infinity) in healthy human (24 volunteers) at 400 mg, po test formulation of drug administered as single dose measured after 0.5 to 10 hrs; design: dose 400 mg, time infinity, route oral
[38] = test system: Homo sapiens; assay: Ratio of AUC (0 to t) in healthy human (24 volunteers) at 400 mg, po test formulation of drug administered as single dose to AUC (0 to t) in healthy human (24 volunteers) at 400 mg, po reference formulation of drug administered as single dose
[39] = AUC (0 to t) in healthy human (24 volunteers) at 400 mg, po test formulation of drug administered as single dose measured after 0.5 to 10 hrs; design: time 0.5-10 hr, dose 400 mg, route oral
[40] = AUC (0 to t) in healthy human (24 volunteers) at 400 mg, po reference formulation of drug administered as single dose measured after 0.5 to 10 hrs; design: time lower 0.5 hr, dose 400 mg, time upper 10 hr, route oral
[41] = Cmax in healthy human (24 volunteers) at 400 mg, po test formulation of drug administered as single dose measured after 0.5 to 10 hrs; design: dose 400 mg, route oral
[42] = Clearance in healthy human (24 volunteers) at 400 mg, po reference formulation of drug administered as single dose by two-compartmental open model
[43] = test system: Homo sapiens; assay: First order inter-compartment transfer rate constant from central to peripheral compartment in healthy human (24 volunteers) at 400 mg, po reference formulation of drug administered as single dose by two-compartmental open model
[44] = Elimination rate constant from central compartment in healthy human (24 volunteers) at 400 mg, po test formulation of drug administered as single dose by two-compartmental open model
[45] = test system: Homo sapiens; assay: First order inter-compartment transfer rate constant from central to peripheral compartment in healthy human (24 volunteers) at 400 mg, po test formulation of drug administered as single dose by two-compartmental open model
[46] = test system: Homo sapiens; assay: First order inter-compartment transfer rate constant from peripheral to central compartment in healthy human (24 volunteers) at 400 mg, po test formulation of drug administered as single dose by two-compartmental open model

Tmax [1]: 2.08 h
Cmax [2]: 488 ng/mL
CL/F [3]: 139 mL/min/kg
K [4]: 0.419 h⁻¹
Ratio AUC [5]: 0.95
Cmax [6]: 486 ng/mL
Tmax [7]: 1.96 h
Vd [8]: 36.8 L/kg
half-life [9]: 25 h
AUC(0-t) [10]: 7580 ng·h/mL
half-life [11]: 25.2 h
AUC(0-inf) [12]: 7990 ng·h/mL
AUC(0-t) [13]: 8050 ng·h/mL
k el [14]: 2.5e-05 s⁻¹
AUC(0-inf) [15]: 8440 ng·h/mL
k el [16]: 2.72e-05 s⁻¹
Vd [17]: 32.2 L/kg
Ratio AUC [18]: 0.96
K [19]: 0.103 h⁻¹
K [20]: 0.084 h⁻¹
Ratio [21]: 1
CL/F [22]: 103 mL/min/kg
K [23]: 0.405 h⁻¹
SMILES: CC[C@@H]1OC(=O)[C@H](C)[C@@H](O[C@@H]2C[C@](C)(OC)[C@H](O)[C@@H](C)O2)[C@@H](C)[C@@H](O[C@@H]2O[C@H](C)C[C@H](N(C)C)[C@H]2O)[C@](C)(O)C[C@@H](C)CN(C)[C@H](C)[C@@H](O)[C@]1(C)O

AUC(0-inf) [24]: 4790 ng·h/mL
half-life [25]: 3.64 h
Vd [26]: 10.4 L/kg
half-life [27]: 3.61 h
Tmax [28]: 1.4 h
Ratio AUC [29]: 1.04
K [30]: 1.23 h⁻¹
CL/F [31]: 225 mL/min/kg
Cmax [32]: 1120 ng/mL
k el [33]: 0.000123 s⁻¹
Vd [34]: 8.8 L/kg
Ratio [35]: 1.07
Tmax [36]: 1.38 h
AUC(0-inf) [37]: 4850 ng·h/mL
Ratio AUC [38]: 1.03
AUC(0-t) [39]: 4020 ng·h/mL
AUC(0-t) [40]: 4010 ng·h/mL
Cmax [41]: 1170 ng/mL
CL/F [42]: 23.3 mL/min/kg
K [43]: 1.34 h⁻¹
k el [44]: 0.000229 s⁻¹
K [45]: 2.26 h⁻¹
K [46]: 0.415 h⁻¹
SMILES: CC[C@H]1OC(=O)[C@H](C)[C@@H](O[C@H]2C[C@@](C)(OC)[C@@H](O)[C@H](C)O2)[C@H](C)[C@@H](O[C@@H]2O[C@H](C)C[C@H](N(C)C)[C@H]2O)[C@](C)(O)C[C@@H](C)C(=O)[C@H](C)[C@@H](O)[C@]1(C)O [ERYTHROMYCIN]
